Paper PMC8380825 (Journal of molecular biology, 2021)
pEC50: −log10 of the molar value. Where no end group is shown, it is not given here.

Assays:
NPR-11 [1] = target: T1, NPR-11 (Caenorhabditis elegans, UniProt Q18179); assay: cAMP reporter gene assay; format: cell-based, C. elegans
T1 sequence (Q18179 1-402): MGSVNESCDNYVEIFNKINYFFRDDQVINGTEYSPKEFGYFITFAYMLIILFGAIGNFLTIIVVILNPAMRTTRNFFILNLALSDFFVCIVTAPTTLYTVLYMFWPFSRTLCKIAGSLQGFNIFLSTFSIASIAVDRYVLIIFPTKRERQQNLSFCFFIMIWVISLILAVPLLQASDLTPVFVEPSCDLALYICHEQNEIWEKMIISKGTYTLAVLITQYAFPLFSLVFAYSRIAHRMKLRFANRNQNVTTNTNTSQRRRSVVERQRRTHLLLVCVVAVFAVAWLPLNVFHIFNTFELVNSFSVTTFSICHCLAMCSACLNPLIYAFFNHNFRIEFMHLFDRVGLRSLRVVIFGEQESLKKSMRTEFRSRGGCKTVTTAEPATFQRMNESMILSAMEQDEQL

NPR-11 mutants [2] = target: NPR-11 mutants (Caenorhabditis elegans, UniProt Q18179, E196D); assay: cAMP reporter gene assay; format: cell-based, C. elegans; conditions: NPR-11 E^5.23D
Sequence of NPR-11 mutants (Caenorhabditis elegans, UniProt Q18179, E196D) (Q18179 whole entry E196D): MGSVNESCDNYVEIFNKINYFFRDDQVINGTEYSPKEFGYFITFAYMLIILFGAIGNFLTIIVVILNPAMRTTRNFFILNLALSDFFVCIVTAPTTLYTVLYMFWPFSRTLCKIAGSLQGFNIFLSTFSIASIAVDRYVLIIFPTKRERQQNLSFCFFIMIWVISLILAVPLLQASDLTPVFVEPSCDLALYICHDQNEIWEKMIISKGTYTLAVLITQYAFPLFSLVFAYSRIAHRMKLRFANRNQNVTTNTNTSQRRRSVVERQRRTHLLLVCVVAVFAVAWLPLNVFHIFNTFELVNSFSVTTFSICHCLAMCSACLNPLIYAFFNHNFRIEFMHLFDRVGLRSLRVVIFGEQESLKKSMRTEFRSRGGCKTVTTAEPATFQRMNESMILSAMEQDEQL

NPR-11 mutants [3] = assay: cAMP reporter gene assay; format: cell-based, C. elegans
NPR-11 mutants [4] = target: NPR-11 mutants (Caenorhabditis elegans, UniProt Q18179, E196A); assay: cAMP reporter gene assay; format: cell-based, C. elegans
Sequence of NPR-11 mutants (Caenorhabditis elegans, UniProt Q18179, E196A) (Q18179 whole entry E196A): as the sequence (Q18179 whole entry E196D) above, with D196A counted along it

NPR-11 mutants [5] = target: NPR-11 mutants (Caenorhabditis elegans, UniProt Q18179, E196Q); assay: cAMP reporter gene assay; format: cell-based, C. elegans
Sequence of NPR-11 mutants (Caenorhabditis elegans, UniProt Q18179, E196Q) (Q18179 whole entry E196Q): as the sequence (Q18179 whole entry E196D) above, with D196Q counted along it

NPR-11 mutants [6] = target: NPR-11 mutants (Caenorhabditis elegans, UniProt Q18179, Q119A); assay: cAMP reporter gene assay; format: cell-based, C. elegans
Sequence of NPR-11 mutants (Caenorhabditis elegans, UniProt Q18179, Q119A) (Q18179 whole entry Q119A): as the sequence (Q18179 whole entry E196D) above, with Q119A, D196E counted along it

NPR-11 mutants [7] = target: NPR-11 mutants (Caenorhabditis elegans, UniProt Q18179, Q119H); assay: cAMP reporter gene assay; format: cell-based, C. elegans; conditions: NPR-11 Q^3.32H
Sequence of NPR-11 mutants (Caenorhabditis elegans, UniProt Q18179, Q119H) (Q18179 whole entry Q119H): as the sequence (Q18179 whole entry E196D) above, with Q119H, D196E counted along it

NPR-11 mutants [8] = target: NPR-11 mutants (Caenorhabditis elegans, UniProt Q18179, F307A); assay: cAMP reporter gene assay; format: cell-based, C. elegans; conditions: NPR-11 F^7.35A
Sequence of NPR-11 mutants (Caenorhabditis elegans, UniProt Q18179, F307A) (Q18179 whole entry F307A): as the sequence (Q18179 whole entry E196D) above, with D196E, F307A counted along it

NPR-11 mutants [9] = target: NPR-11 mutants (Caenorhabditis elegans, UniProt Q18179, E199A); assay: cAMP reporter gene assay; format: cell-based, C. elegans; conditions: NPR-11 E^5.26A
Sequence of NPR-11 mutants (Caenorhabditis elegans, UniProt Q18179, E199A) (Q18179 whole entry E199A): as the sequence (Q18179 whole entry E196D) above, with D196E, E199A counted along it

NPR-11 mutants [10] = target: NPR-11 mutants (Caenorhabditis elegans, UniProt Q18179, T96A); assay: cAMP reporter gene assay; format: cell-based, C. elegans; conditions: NPR-11 T^2.61A
Sequence of NPR-11 mutants (Caenorhabditis elegans, UniProt Q18179, T96A) (Q18179 whole entry T96A): as the sequence (Q18179 whole entry E196D) above, with T96A, D196E counted along it

NPR-1 mutants [11] = target: NPR-1 mutants (Caenorhabditis elegans, UniProt Q18534, D316A); assay: cAMP reporter gene assay; format: cell-based, C. elegans; conditions: NPR-1 D^7.27A mutant
Sequence of NPR-1 mutants (Caenorhabditis elegans, UniProt Q18534, D316A) (Q18534 whole entry D316A): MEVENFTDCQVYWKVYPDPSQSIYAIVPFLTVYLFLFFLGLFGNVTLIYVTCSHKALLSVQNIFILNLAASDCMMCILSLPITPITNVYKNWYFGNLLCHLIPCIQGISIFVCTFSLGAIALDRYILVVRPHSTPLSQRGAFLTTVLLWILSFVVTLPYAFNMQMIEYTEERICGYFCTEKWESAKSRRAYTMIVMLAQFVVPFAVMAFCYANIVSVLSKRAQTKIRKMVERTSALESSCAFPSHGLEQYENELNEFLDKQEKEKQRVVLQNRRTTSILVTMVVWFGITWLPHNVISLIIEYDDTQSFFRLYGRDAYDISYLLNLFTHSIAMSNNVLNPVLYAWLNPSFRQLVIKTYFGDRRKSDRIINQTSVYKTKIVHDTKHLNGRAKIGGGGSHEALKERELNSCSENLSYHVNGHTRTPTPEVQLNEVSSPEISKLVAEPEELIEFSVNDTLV

NPR-1 mutants [12] = target: NPR-1 mutants (Caenorhabditis elegans, UniProt Q18534, E180Q); assay: cAMP reporter gene assay; format: cell-based, C. elegans
Sequence of NPR-1 mutants (Caenorhabditis elegans, UniProt Q18534, E180Q) (Q18534 whole entry E180Q): as the sequence (Q18534 whole entry D316A) above, with E180Q, A316D counted along it

NPR-1 mutants [13] = target: NPR-1 mutants (Caenorhabditis elegans, UniProt Q18534, D303A/D304A/E301A); assay: cAMP reporter gene assay; format: cell-based, C. elegans
Sequence of NPR-1 mutants (Caenorhabditis elegans, UniProt Q18534, D303A/D304A/E301A) (Q18534 whole entry E301A/D303A/D304A): as the sequence (Q18534 whole entry D316A) above, with E301A, D303A, D304A, A316D counted along it

NPR-1 mutants [14] = target: NPR-1 mutants (Caenorhabditis elegans, UniProt Q18534, D315A); assay: cAMP reporter gene assay; format: cell-based, C. elegans; conditions: NPR-1 D^7.26A mutant
Sequence of NPR-1 mutants (Caenorhabditis elegans, UniProt Q18534, D315A) (Q18534 whole entry D315A): as the sequence (Q18534 whole entry D316A) above, with D315A, A316D counted along it

NPR-1 mutants [15] = target: NPR-1 mutants (Caenorhabditis elegans, UniProt Q18534, E301D); assay: cAMP reporter gene assay; format: cell-based, C. elegans
Sequence of NPR-1 mutants (Caenorhabditis elegans, UniProt Q18534, E301D) (Q18534 whole entry E301D): as the sequence (Q18534 whole entry D316A) above, with E301D, A316D counted along it

NPR-1 mutants [16] = assay: cAMP reporter gene assay; format: cell-based, C. elegans; conditions: mutation of T^2.61 and Q^3.32 of NPR-1
NPR-1 mutants [17] = target: NPR-1 mutants (Caenorhabditis elegans, UniProt Q18534, E301A); assay: cAMP reporter gene assay; format: cell-based, C. elegans
Sequence of NPR-1 mutants (Caenorhabditis elegans, UniProt Q18534, E301A) (Q18534 whole entry E301A): as the sequence (Q18534 whole entry D316A) above, with E301A, A316D counted along it

NPR-1 mutants [18] = target: NPR-1 mutants (Caenorhabditis elegans, UniProt Q18534, E180A); assay: cAMP reporter gene assay; format: cell-based, C. elegans
Sequence of NPR-1 mutants (Caenorhabditis elegans, UniProt Q18534, E180A) (Q18534 whole entry E180A): as the sequence (Q18534 whole entry D316A) above, with E180A, A316D counted along it

NPR-1 mutants [19] = target: NPR-1 mutants (Caenorhabditis elegans, UniProt Q18534, E180D); assay: cAMP reporter gene assay; format: cell-based, C. elegans
Sequence of NPR-1 mutants (Caenorhabditis elegans, UniProt Q18534, E180D) (Q18534 whole entry E180D): as the sequence (Q18534 whole entry D316A) above, with E180D, A316D counted along it

NPR-1 [20] = target: T2, NPR-1 (Caenorhabditis elegans, UniProt Q18534); conditions: read-out: EC50 at NPR-1; ref [13]; cited from earlier work
T2 sequence (Q18534 1-457): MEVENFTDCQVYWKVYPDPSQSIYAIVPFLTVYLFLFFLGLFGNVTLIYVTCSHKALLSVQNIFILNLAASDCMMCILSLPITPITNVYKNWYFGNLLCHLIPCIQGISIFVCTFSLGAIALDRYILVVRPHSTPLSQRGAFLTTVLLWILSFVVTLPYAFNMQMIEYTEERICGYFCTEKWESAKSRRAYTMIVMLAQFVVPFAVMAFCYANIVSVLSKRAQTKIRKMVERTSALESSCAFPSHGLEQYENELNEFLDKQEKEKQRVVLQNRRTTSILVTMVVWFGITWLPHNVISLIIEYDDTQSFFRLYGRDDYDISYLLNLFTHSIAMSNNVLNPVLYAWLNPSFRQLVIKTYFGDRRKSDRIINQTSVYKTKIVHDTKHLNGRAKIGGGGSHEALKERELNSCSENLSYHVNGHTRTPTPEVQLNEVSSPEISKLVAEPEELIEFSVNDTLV

NPR-1 [21] = target: T2, NPR-1; assay: cAMP reporter gene assay; format: cell-based, C. elegans; conditions: wild type NPR-1
[22] = target: Q^3.32A variant of NPR-11 (Caenorhabditis elegans, UniProt Q18179, Q119A); assay: NanoBRET displacement binding assay, Nluc-NPR-11 Q^3.32A variant; design: species or system C. elegans
Sequence of Q^3.32A variant of NPR-11 (Q18179 whole entry Q119A): as the sequence (Q18179 whole entry E196D) above, with Q119A, D196E counted along it

NPR-11 [23] = target: T1, NPR-11; assay: NanoBRET displacement binding assay, Nluc-NPR-11 wild type; design: species or system C. elegans

Question: For GLGPRPLRF-NH2 [FLP-21], which “reduced potency at NPR-11 compared to NPR-1” value (NPR-11 [1]; EC50 NPR-11 versus EC50 NPR-1) is on record?
Answer: 64 fold

Question: What about the “decreased potency relative to wild type receptor” value (NPR-11 mutants [2]) of the same substance?
Answer: > 70 fold

Question: What about the “receptor activation in words” value (NPR-11 mutants [3]; NPR-11 E^5.26 mutated to glutamine or aspartate) of the same substance?
Answer: behaved like wild type

Question: And the “EC50 shift relative to wild type receptor” value (NPR-11 mutants [3]; NPR-11 F^7.35 to histidine or leucine)?
Answer: > 200 fold

Question: What about the “receptor activation in words” value (NPR-11 mutants [3]; NPR-11 T^6.59 and N^6.58 alanine mutants) of the same substance?
Answer: wild type-like activities

Question: And the pEC50 (NPR-11 mutants [4])?
Answer: < 5.00

Question: What about the pEC50 (NPR-11 mutants [5]) of the same substance?
Answer: < 5.00

Question: What about the pEC50 (NPR-11 mutants [6]) of the same substance?
Answer: 10.00

Question: And the “EC50 as fold of the wild type receptor” value (NPR-11 mutants [6]; NPR-11 Q^3.32A)?
Answer: 0.002 fold

Question: What about the “gain of function relative to wild type receptor” value (NPR-11 mutants [6]; NPR-11 Q^3.32A) of the same substance?
Answer: > 500 fold

Question: What about the “receptor activation in words” value (NPR-11 mutants [7]) of the same substance?
Answer: did not affect activation

Question: What about the “receptor activation in words” value (NPR-11 mutants [8]) of the same substance?
Answer: inactive

Question: What about the “receptor activation in words” value (NPR-11 mutants [9]) of the same substance?
Answer: inactive

Question: What about the “EC50 shift relative to wild type receptor” value (NPR-11 mutants [10]) of the same substance?
Answer: 4 fold

Question: And the “EC50 shift relative to wild type receptor” value (NPR-1 mutants [11])?
Answer: < 5 fold

Question: And the pEC50 (NPR-1 mutants [12])?
Answer: < 5.00

Question: And the pEC50 (NPR-1 mutants [13])?
Answer: < 5.00

Question: What about the “EC50 shift relative to wild type receptor” value (NPR-1 mutants [14]) of the same substance?
Answer: < 5 fold

Question: What about the pEC50 (NPR-1 mutants [15]) of the same substance?
Answer: 9.89

Question: What about the “decrease of receptor activation relative to wild type receptor” value (NPR-1 mutants [16]) of the same substance?
Answer: > 30 fold

Question: And the pEC50 (NPR-1 mutants [17])?
Answer: 7.70

Question: What about the “EC50 shift relative to wild type NPR-1” value (NPR-1 mutants [17]; NPR-1 E^6.59A) of the same substance?
Answer: 25 fold

Question: And the pEC50 (NPR-1 mutants [18])?
Answer: < 5.00

Question: What about the pEC50 (NPR-1 mutants [19]) of the same substance?
Answer: 6.31

Question: What about the “EC50 shift relative to wild type receptor” value (NPR-1 mutants [19]; NPR-1 E^5.27D) of the same substance?
Answer: > 600 fold

Question: With RGPSGPLRF-NH2 [FLP-15–2] as the substance, how does the pEC50 (NPR-1 [20]) read?
Answer: 7.66

Question: What does the source list for “[L^7A]-FLP-21: FLP-21 variant, L^7 to alanine (GLGPRPARF-NH2)”?
Answer: EC50 shift (loss of potency) relative to wild type FLP-21 (NPR-1 [21]): 497 fold; EC50 shift relative to wild type FLP-21 (NPR-11 [1]; wild type NPR-11): 10 fold; EC50 shift compared to FLP-21 at the same receptor mutant (NPR-11 mutants [6]; NPR-11 Q^3.32A): 300 fold; reduction of Ki compared to FLP-21 [22]: 100 fold; reduction of Ki relative to FLP-21 (NPR-11 [23]): less than 10 fold
